Measurements from US12514931B2, “Microsphere-drug combination” (UCL Business LTD, priority 2019, dated 2026).
Each block holds one compound with its values, some of them ahead of it.

Experiments:
[1] = Loading of taxanes onto PLGA TIPS microspheres via antisolvent precipitation (drug loading efficiency, UV 229 nm); assay type: physicochemical; conditions: for taxane loaded onto the microspheres from the solution: 0.1% (w/v) pure taxane in ethanol, 5 mg dry PLGA TIPS microspheres, within 60 minutes of initiating mixing
Protocol: A facile method was developed to load DTX and other taxanes such as paclitaxel and cabazitaxel onto TIPS microspheres via antisolvent precipitation (FIG. 1). 5 mg of PLGA TIPS microspheres were transferred into 20 ml clear Type 1B boroscilicate glass vials and sealed with a butyl injection stopper. 4.5 mL of ultrapure water was added to the vial and vortexed for 10 seconds. 0.5 ml of 0.1% (w/v) taxane in ethanol, or a formulation of docetaxel or paclitaxel matching Taxotere® or Taxol® was added using a 1 mL syringe with a 25G needle through the rubber stopper, when the vial was inverted. The vial was then vortexed for 10 seconds and placed on a roller mixer (IKA® Roller 6 Digital; 60 rpm) at room temperature for predetermined periods (5, 15, 30, 60, 120 minutes).
Drug loading efficiency (DLE) of the taxane, such as DTX, onto the TIPS microspheres at each time-point was calculated according to Equation 1. The amount of free taxane left in the solution was measured by UV spectroscopy at the wavelength of 229 nm using a Nanodrop 2000c spectrophotometer (Thermo Scientific, Waltham, MA, USA).
• 1. Dry TIPS PLGA microspheres (size range of 250-350 μm): Docetaxel loaded onto 5 mg PLGA TIPS microspheres as described directly above. […] An equivalent number of solid PLGA microspheres (size range of 250-350 μm) to the quantity of microspheres in 5 mg of dry TIPS PLGA microspheres were transferred into 20 ml clear Type 1B boroscilicate glass vials and sealed with a butyl injection stopper. […] Drug loading efficiency (DLE) of docetaxel (DTX) onto the TIPS microspheres at each time-point was calculated according to Equation 1. The amount of free docetaxel left in the solution was measured by UV spectroscopy at the wavelength of 229 nm using a Nanodrop 2000c spectrophotometer (Thermo Scientific, Waltham, MA, USA). […]

[2] = DTX concentration in tissues from explanted organs (LC-MS/MS); assay type: in vivo, NSG mice; conditions: NSG, mouse, intravenous, 10 mg/kg; for concentration at 1 day: day 1 post-administration; for concentration at 10 day: day 10 post-administration; for concentration at 35 day: day 35 post-administration
Protocol: At the end of the in-life phase (day 1, 10 and 35 post-treatment) the mice were euthanised by overdose of CO2, followed by cervical dislocation and organs (heart, liver, kidneys, lungs and spleen) were collected, weighed and immediately frozen in liquid nitrogen before storage at −80° C. until further analysis. Evaluation of docetaxel concentrations was carried out by liquid chromatography tandem mass spectrometry in tissue following homogenisation in 3 ml/g (spleens 5 ml/g) 10 mM PBS using a Precellys 24 homogeniser (Bertin technologies, Montigny-le-Bretonneux, France). 45 μl tissue homogenate was spiked with 5 μl DMSO, samples were mixed and protein precipitated with 150 μl acetonitrile containing DTX-D9 as internal standard (25 nM). Samples were mixed and centrifuged. Supernatant was taken and diluted 40:60 with 0.5% sodium acetate (20 μM) in ammonium acetate (10 mM, pH 5). Blanks, calibration curve and QCs were prepared as above using tissues obtained from the same strain of mice (NSG) and spiked with DMSO, working calibration standard and working QC respectively. Blanks consisted of protein precipitated with acetonitrile alone, blank+, standards and QCs were protein precipitated with acetonitrile containing DTX-D9.

PC3 cells = assay: Colony formation assay with perfusate from DTX-TIPS microspheres; assay type: cell-based, human; conditions: DTX released into perfusate during the first 5 days
Protocol: PC3 cells were maintained in Ham's F12-K medium (Kaighn's modification) (Invitrogen, 21127-022) supplemented with 10% (v/v) foetal bovine serum (FBS) and 1% antibiotics (referred to henceforth as complete medium). Cells were cultured at 37° C. under 5% CO2 atmosphere in a humidified incubator.
PC3 cells cultured in 6 well plates were incubated for 48 hours in 2 ml of perfusate (conditioned complete culture medium) collected from DTX-TIPS microspheres loaded into the perfusion system, as outlined above. Colony formation assays were performed as previously described (Franken NAP, Rodermond HM, Stap J, Haveman J, van Bree C. Clonogenic assay of cells in vitro. Nat Protoc. 2006; 1(5):2315-2319). […] The colonies were counted in ImageJ using the ‘Colony Counter’ plug in (processing parameters: size 100-30,000; circularity 0.5-1) (https://imagej.nih.gov/ij/plugins/colony-counter.html).
Plating efficiency (PE) was estimated by dividing the number of colonies counted by the number of cells initially seeded. […]

PC3 xenograft tumour = assay: In vivo tumour growth inhibitory activity, PC3 xenograft; parameters: species or system NSG immunodeficient mice
Protocol: Female NSG™ immunodeficient mice (NOD.Cg-PrkdscidIl2rgtm1Wjl/SzJ; Charles River), aged 6-7 weeks and 18-20 g in body weight, were acclimatised for 1 week prior to injection of tumour cells. PC3 cells (5.0×10^6 cells in 100 μl phosphate buffered saline [PBS]) were injected subcutaneously into the right flank of each mouse. The dimensions of tumour were measured three times per week using digital callipers and the tumour volume calculated using the following formula: […]

[3] = Docetaxel release from DTX-TIPS microspheres in dynamic perfusion system; assay type: physicochemical; conditions: PBS pH 7.4, 37 C, 0.01 mL/min; over 5 days
Protocol: Release profile of DTX from the TIPS microspheres was investigated using a dynamic perfusion system to simulate tissue perfusion of the drug-device combination in the physiological milieu when used in clinic following radical prostatectomy. Thus, the perfusion system was placed inside an incubator at 37° C. and physiological simulated medium (phosphate buffed saline (PBS); pH 7.4) was used as perfusate. DTX-loaded microspheres were mixed with 100 μl of 70% (v/v) GranuGel® (Convatec, UK) diluted in ultrapure water and the mixture was placed between two 25 mm circular filter papers (Whatman® qualitative cellulose filter paper, Grade 1), where their positions were held by a Swin-Lok™ plastic membrane filter holder. A hypodermic needle (18G×40 mm) connecting the outlet of the filter holder, was inserted through the lid of a 50 ml polypropylene container to collect the perfusate. PBS was pumped through the filter holder by a peristaltic pump (Harvard Apparatus) at a flow rate of 0.01 mL/min. […]
The amount of DTX released in the perfusate was determined using a predetermined standard curve. At each measurement, the concentration of DTX in the release medium collected in the polypropylene container was determined by UV spectroscopy at 229 nm as described above, to calculate the cumulative DTX release according to Equation 2.

[4] = Measurement of DTX in plasma after administration (LC-MS/MS); assay type: in vivo, BALB/cAnNCrl mice
Protocol: Docetaxel-loaded TIPS microspheres were prepared via anti-solvent precipitation, as outlined above. […] For measurement of circulating DTX in plasma, blood samples were collected via the tail vein at day 0 (pre-dose), and days 1, 2, 3, 7, 10 then every 5 days until day 35 immediately before the end of in life phase. Blood samples were collected into 10 μl capillaries containing sodium heparin (Hirschmann, Eberstadt, Germany) and placed in wells of a 2 ml deep well plate that was stored at −80° C. until extraction.
On the day of the extraction, calibration curve and sample plates were thawed. 125 μl of water:acetonitrile containing 0.4% […] was added to blanks, calibration curve and QCs. 125 μl of 70:30 water:acetonitrile containing 0.4% DMSO was added to all samples. 40 μl of each […]:water:acetonitrile sample was taken and protein precipitated with 120 μl acetonitrile containing DTX-D9 (25 nM). Samples were mixed and centrifuged. Supernatant was taken and diluted 40:60 with 0.5% sodium acetate (20 μM) in ammonium acetate (10 mM, pH5).
Liquid chromatography-mass spectrometry analysis was carried out with a Waters (Milford, MA) H-class Acquity solvent manager and sample manager on a Waters Acquity HSS PFP column (1.8 μm, 50 mm×2.1 mm id) with a gradient consisting of 10 mM ammonium acetate (pH 5.0) and acetonitrile mobile phases. The flow rate was 0.6 ml/min and the run time 5.6 minutes. Analyte and internal standard were ionised using electrospray ionisation in positive ion mode. Detection of analytes was via tandem mass spectrometry (MS/MS) using a Waters Xevo TQ-S mass spectrometer in the multiple reaction monitoring (MRM) mode. For DTX and DTX-D9 (IS), the transitions m/z 830.4-248.1/304.2 and m/z 839.4-313.0 were monitored respectively. The calibration curve was linear over the concentration range […].

taxane loaded onto the microspheres from the solution [1]: about 60%
Structure (SMILES): CO[C@H]1C(=O)[C@]2(C)[C@@H](OC)C[C@H]3OC[C@@]3(OC(C)=O)[C@H]2[C@H](OC(=O)c2ccccc2)[C@]2(O)C[C@H](OC(=O)[C@H](O)[C@@H](NC(=O)OC(C)(C)C)c3ccccc3)C(C)=C1C2(C)C [cabazitaxel]

concentration at 1 day ([2]; Heart): 340 ± 42.9 nM
concentration at 10 day ([2]; Heart): 90.1 ± 19.4 nM
concentration at 35 day ([2]; Heart): 0.97 ± 2.37 nM
concentration at 1 day ([2]; Kidney): 115 ± 22.4 nM
concentration at 10 day ([2]; Kidney): 115 ± 22.4 nM
concentration at 35 day ([2]; Kidney): 1.17 ± 2.86 nM
concentration at 1 day ([2]; Liver): 87.3 ± 7.85 nM
concentration at 10 day ([2]; Liver): 27 ± 11.9 nM
concentration at 35 day ([2]; Liver): 0 nM
concentration at 1 day ([2]; Lung): 641 ± 92.4 nM
concentration at 10 day ([2]; Lung): 256 ± 35.5 nM
concentration at 35 day ([2]; Lung): 13.8 ± 16.2 nM
concentration at 1 day ([2]; Spleen): 14.1 ± 11.9 nM
concentration at 10 day ([2]; Spleen): 35.3 ± 51.9 nM
concentration at 35 day ([2]; Spleen): 0 nM
cumulative release of total DTX loaded [3]: approximately 95%
plasma DTX level, I.V. DTX relative to DTX-TIPS group ([4]; 1 hour post-administration): 102 fold
plasma DTX level, I.V. DTX relative to DTX-TIPS group ([4]; 24 hour post-administration): 8 fold
taxane loaded onto the microspheres from the solution [1]: Approximately 80%
time of maximum loading onto the TIPS particles ([1]; room temperature, no heating or cooling steps): ≤ 60 min
Structure (SMILES): CC(=O)O[C@@]12CO[C@@H]1C[C@H](O)[C@@]1(C)C(=O)[C@H](O)C3=C(C)[C@@H](OC(=O)[C@H](O)[C@@H](NC(=O)OC(C)(C)C)c4ccccc4)C[C@@](O)([C@@H](OC(=O)c4ccccc4)[C@H]21)C3(C)C [docetaxel, Docetaxel]
toxicity against the PC3 cells in the colony forming assay (PC3 cells): 100%
tumour volume over the study period (PC3 xenograft tumour; Example 8, compared with saline or control microsphere group): Tumour growth inhibition was most apparent
tumour volume / tumour growth inhibition (PC3 xenograft tumour; Example 9, DTX-TIPS compared with I.V. DTX, until day 21): did not increase
DTX in plasma ([4]; 48 hours, 72 hours, day 10 and day 15, I.V. 10 mg/kg once weekly for three weeks): detectable levels of DTX remaining in the plasma
